Like-named read-outs stand apart in the source and are kept apart here.
Legend:
[1] = as described; cited from earlier work
[2] = tested on: Bone Marrow Derived Mesenchymal Stem Cells, human (BM-MSC); myofibroblast content; experiment: Myofibroblast reduction phenotype in TGF-beta-1 fibrogenic differentiation culture (high-content imaging); type: cell-based
Experimental: (§1) Bone Marrow Derived Mesenchymal Stem Cells, human (BM-MSC, ATCC PCS-500-012) were cultured in medium composed of Mesenchymal Stem Cell Basal Medium foe Adipose, Umbilcal and Bone Marrow-derived MSCs (ATCC PCS-400030 and Mesenchymal Stem Cell Growth for Bone Marrow-derived MSCs (ATCC PCS-500-041). Cells were seeded at a density of 15,000 cells/well in a 96-well format.
(§2) To induce fibrogenic differentiation BM-MSCs were cultured in a medium composed by Dulbecco's Modified Eagle Medium, 2% horse serum (HS) (Sigma H1270) and 5-10 ng/ml TGF-beta-1 (PreproTech 100-21). Cells were cultured in basal media for 2 days before being switched to fibrogenic differentiation media for 5 days, after which they were taken down for downstream assays. Compound treatment was added when media was switched to fibrogenic differentiation media, cells were treated with 0.1% DMSO if not receiving compound.
(§3) Cells were fixed in 4% PFA for 10 min at RT. Fixed cells were washed three times in 1×PBS and incubated in permeabilization solution (0.5% Triton X-100 in 1×PBS) for 10 min. Unspecific binding were saturated by incubating samples in blocking solution (5% donkey serum in 1×PBS) for 1 h. The cells were incubated at RT for 1 hour with gentle shaking in the presence of primary antibody against, alpha-smooth muscle actin (1:1000, Sigma™ A5228). The cells were washed three times with 0.05% Tween-20 in 1×PBS and incubated, for 1 hour at RT, with host-specific secondary antibodies in addition to counterstaining for Alexa Fluor Plus 750 Phalloidin (1:2000, Invitrogen™, A30105) and DAPI (1:2000). Primary and secondary antibodies were diluted according to the manufacturer's recommendations in blocking solution+0.1% Triton X-100. Finally, the cells were washed three times with 0.05% Tween-20 in 1×PBS, washed twice with 1×PBS and stored at 4° C. Images were acquired on a Thermo Scientific™ CellInsight™ CX7LED high content analysis (HCA) imaging instrument using a 10× objective. Nine fields per well were captured for quantification.
Columbus™ software (version 2.9.1, Perkin Elmer®) was used for analysis of acquired images. A custom analysis pipeline was constructed to quantify the percentage of myofibroblasts within the well. First, nuclei were segmented using “Method B” and intensity and morphology properties were calculated using standard settings. Second, viable nuclei were identified by gating on nuclei intensity, area, and roundness of the segmented objects. Next, a region of interest was then defined around the selected viable nuclei by expanding the outer boarder by […]. STAR morphology and SER texture properties were calculated within the region of interest for the alpha-smooth muscle actin and phalloidin channels using the following parameters: profile width=4 px, scale=1 px, Kernel normalization. The calculated morphology and texture properties were used to train a linear classifier consisting of two classes, myofibroblasts and mesenchymal stem cells, by selecting >100 objects in each negative control (DMSO) and positive control (fibrogenic differentiation media) conditions. The linear classifier was then applied to the untrained test wells using a batch analysis to calculate the percentage of myofibroblasts within each image using a formula output (myofibroblasts:number of objects/viable nuclei:number of objects)*100. Results were averaged across the nine fields imaged per well.
The initial six NOX4 inhibitors were assessed in replicate experiments for both potency of myofibroblast reducing activity and an associated IC50 for the myofibroblast reduction phenotype was determined (Table 1).

mesenchymal stem cells = experiment: Phalloidin (F-actin) / alpha-SMA staining of treated mesenchymal stem cells; type: cell-based, human; details: 1 μM
Experimental: as §1, §2, §3

**Q.** With `CN(C)c1cccc(-c2c3c(=O)n(-c4ccccc4Cl)[nH]c3cc(=O)n2C)c1` [FTX1620, Setanaxib] as the molecule, how does the oral bioavailability [1] read?
**A.** orally bioavailable

**Q.** What about the IC50 ([2]; Homo sapiens, BMMSC, first experiment, read-out: IC50 Phenotype (myofibroblast reduction)) of the same molecule?
**A.** 0.0773 µM

**Q.** What about the IC50 ([2]; Homo sapiens, BMMSC, replicate experiment, read-out: IC50 Phenotype Replicate) of the same molecule?
**A.** 0.126 µM

**Q.** And the IC50 ([2]; replicate experiment, read-out: IC50 Phenotype Replicate)?
**A.** 0.126 µM

**Q.** And the “reduction of myofibroblast content (concentration-response)” value ([2]; treated cells in culture)?
**A.** reduced the myofibroblast content of treated cells in a dose-responsive manner

**Q.** And the “phalloidin (F-actin) staining” value (mesenchymal stem cells)?
**A.** significant phalloidin staining

**Q.** What about the “α-SMA immunofluorescence and phalloidin (F-actin) staining” value (mesenchymal stem cells; FIG. 15) of the same molecule?
**A.** exhibited both α-SMA immunofluorescence and phalloidin (F-actin) staining

From US20250223560A1, “NOX4 INHIBITOR COMPOSITIONS AND METHODS FOR REGENERATION OF DYSTROPHIC MUSCLE” (FULCRUM THERAPEUTICS, INC., priority 2022, published 2025)
